Tests used:
[1] = tested on: patients with advanced non-small cell lung carcinoma (NSCLC); test: Japan Phase III Clinical Trial (paclitaxel + cisplatin, placebo-controlled; PNQ primary evaluation); type: in vivo, human; details: paclitaxel/Tavocept/cisplatin vs paclitaxel/saline placebo/cisplatin, NSCLC patients (Figure 5)
Protocol: The Japan Phase III Clinical Trial was conducted as a double-blind study because peripheral neuropathy is diagnosed based on subjective symptoms evaluated through clinical interviews, lab tests, and the like. Accordingly, evaluations by both physicians and patients are highly important. […] A placebo was used as control since there is no established therapy or drug for preventing peripheral neuropathy. Because the severity of peripheral neuropathy is evaluated based on patients' reports (i.e., subjective symptoms), the Peripheral Neuropathy Questionnaire (PNQ^© was used in primary evaluation. The CIPN-20 questionnaire and the National Cancer Institute - Common Toxicity Criteria (NCI-CTC) were used in secondary evaluation. The incidence and severity of adverse reactions, time to their onset, etc. and the like, were compared between patients treated with Tavocept™ and those given a placebo using the aforementioned methods.
The Primary Endpoint of the Japan Phase III Clinical Trial described in the present invention was specifically designed to test the hypothesis of whether chemotherapy-induced intermittent peripheral neuropathy would occur. […] The results illustrated in Figure 3 indicate that intermittent peripheral neuropathy was specifically identified and measured in the Japan Phase III Clinical Trial. […]

[2] = tested on: paclitaxel-induced neuropathy model; test: Paclitaxel-induced thermoparesthesia in the paclitaxel-induced neuropathy model; type: in vivo, rats; details: for maximum inhibition rate (thermoparesthesia): paclitaxel 6 mg/kg i.v. 5-times every other day
tubulin = details: paclitaxel 6 µM; cited from earlier work
[3] = human, in vivo
Protocol: • Figure 1 illustrates a comparison of the number of hypersensitivity Adverse Events between groups of patients in whom 2,2'-dithio-bis-ethane sulfonate or a placebo was infused over (1) 30 minutes, (2) 30 and 45 minutes, or (3) 45 minutes. […] Drug concentrations of disodium 2,2'-dithio-bis-ethane sulfonate administered were 200 mg/mL infused over 30 minutes, 200 mg/mL and 100 mg/mL infused over 30 & 45 minutes, respectively, and 100 mg/mL infused over 45 minutes.
The patients' body surface area (BSA) was determined based on the use of standard methods that are customarily used for such purposes, including standardized nomograms and calculations that utilize the individual height and weight data from each patient.
Figure 1 illustrates a comparison of the number of hypersensitivity Adverse Events between groups of patients in whom 2,2'-dithio-bis-ethane sulfonate or a placebo was infused over (1) 30 minutes, (2) 30 minutes and 45 minutes, or (3) 45 minutes. In addition, the total number of hypersensitivity Adverse Events, the mean time to the first hypersensitivity Adverse Event, and a variety of the types of hypersensitivity Adverse Events were also shown.
Drug concentrations administered were about 200 mg/mL infused over about 30 minutes, about 200 mg/mL and about 100 mg/mL infused over about 30 & about 45 minutes, respectively, and about 100 mg/mL infused over about 45 minutes.

Compound: O=S(=O)([O-])CCSSCCS(=O)(=O)[O-].[Na+].[Na+] [Tavocept, disodium 2,2'-dithio-bis-ethane sulfonate]
- reduction in severe (Grade D or E) intermittent or cumulative peripheral neuropathy [1]: ~50%
- maximum inhibition rate (thermoparesthesia) ([2]; 1,000 mg/kg): 41.7%
- inhibition rates of thermoparesthesia ([2]; 2,000 mg/kg i.v. immediately after paclitaxel 12 mg/kg i.p. once a week for 5 weeks): 19.2-34.1%
- maximum inhibition rate (thermoparesthesia) ([2]; 2,000 mg/kg): 41.5%
- concentration that inhibits tubulin polymerization induced by paclitaxel (tubulin): 6 mM
- reduction in hypersensitivity Adverse Events in the treatment population [3]: ≤ 57%

Source: patent publication EP2252246B1, “CHEMOPROTECTIVE METHODS AND COMPOSITIONS” (BIONUMERIK PHARMACEUTICALS, INC., priority 2008, dated 2009)
